Read-outs that look alike come from different tables or passages of the source.
Legend:
Format in all cases: biochemical
SENP2 [1] = molecular target: T1, SENP2 (Homo sapiens, UniProt Q9HC62)
T1 sequence (Q9HC62 366-589): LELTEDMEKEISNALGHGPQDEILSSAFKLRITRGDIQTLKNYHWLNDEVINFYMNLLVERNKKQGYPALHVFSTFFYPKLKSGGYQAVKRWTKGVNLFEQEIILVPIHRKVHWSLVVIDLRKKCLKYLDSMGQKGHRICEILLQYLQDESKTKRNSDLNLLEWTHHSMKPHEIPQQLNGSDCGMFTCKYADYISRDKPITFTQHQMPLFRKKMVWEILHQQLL

USP7 [2] = molecular target: T2, USP7 (Homo sapiens, UniProt Q93009)
T2 sequence (Q93009 whole entry): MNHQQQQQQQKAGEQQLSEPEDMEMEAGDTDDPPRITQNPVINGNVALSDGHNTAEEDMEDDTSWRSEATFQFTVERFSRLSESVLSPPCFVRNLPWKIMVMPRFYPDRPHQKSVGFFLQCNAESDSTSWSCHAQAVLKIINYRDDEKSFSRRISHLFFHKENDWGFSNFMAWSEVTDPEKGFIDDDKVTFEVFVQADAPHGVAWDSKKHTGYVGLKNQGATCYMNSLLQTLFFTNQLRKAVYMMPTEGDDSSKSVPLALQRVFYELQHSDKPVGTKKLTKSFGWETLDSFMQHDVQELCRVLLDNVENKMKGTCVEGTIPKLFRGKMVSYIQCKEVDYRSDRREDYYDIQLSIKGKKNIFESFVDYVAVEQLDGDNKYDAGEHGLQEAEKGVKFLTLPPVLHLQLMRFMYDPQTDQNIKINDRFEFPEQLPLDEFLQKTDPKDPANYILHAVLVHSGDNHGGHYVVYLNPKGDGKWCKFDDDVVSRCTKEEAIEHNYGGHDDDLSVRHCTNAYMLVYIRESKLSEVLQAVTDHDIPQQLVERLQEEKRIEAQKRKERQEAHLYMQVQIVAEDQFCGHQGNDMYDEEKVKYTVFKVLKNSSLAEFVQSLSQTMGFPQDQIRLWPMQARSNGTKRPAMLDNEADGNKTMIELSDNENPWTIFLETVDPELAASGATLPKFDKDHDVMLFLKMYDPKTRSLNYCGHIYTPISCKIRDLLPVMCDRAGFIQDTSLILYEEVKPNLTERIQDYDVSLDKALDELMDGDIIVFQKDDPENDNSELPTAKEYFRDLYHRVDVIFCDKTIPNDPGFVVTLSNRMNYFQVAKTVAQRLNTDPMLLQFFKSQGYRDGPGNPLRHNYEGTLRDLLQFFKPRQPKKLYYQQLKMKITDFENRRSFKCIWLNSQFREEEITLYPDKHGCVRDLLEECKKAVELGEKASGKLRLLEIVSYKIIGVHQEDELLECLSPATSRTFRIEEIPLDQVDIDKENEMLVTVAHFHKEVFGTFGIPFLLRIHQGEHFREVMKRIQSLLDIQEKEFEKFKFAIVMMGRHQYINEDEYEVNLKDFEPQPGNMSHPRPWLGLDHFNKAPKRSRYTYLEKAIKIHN

USP2 [3] = molecular target: T3, USP2 (Homo sapiens, UniProt O75604)
T3 sequence (O75604 259-605): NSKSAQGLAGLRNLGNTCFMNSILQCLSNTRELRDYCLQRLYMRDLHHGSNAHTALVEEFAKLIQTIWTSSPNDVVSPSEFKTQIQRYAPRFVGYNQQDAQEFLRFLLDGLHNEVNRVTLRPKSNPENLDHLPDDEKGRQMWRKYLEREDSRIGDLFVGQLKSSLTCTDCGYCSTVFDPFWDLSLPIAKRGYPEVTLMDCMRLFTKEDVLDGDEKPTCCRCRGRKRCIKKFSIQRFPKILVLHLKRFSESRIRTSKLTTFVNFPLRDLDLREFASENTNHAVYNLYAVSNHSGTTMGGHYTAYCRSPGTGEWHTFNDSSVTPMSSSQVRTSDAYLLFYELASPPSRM

USP7 [4] = molecular target: T2, USP7; test: Ub-PLA2 / NBD C6-HPC coupled fluorescence isopeptidase assay
SENP2 [5] = molecular target: T1, SENP2; test: SUMO3-PLA2 / NBD C6-HPC coupled fluorescence isopeptidase assay
USP2 [6] = molecular target: T3, USP2; test: Ub-PLA2 / NBD C6-HPC coupled fluorescence isopeptidase assay

Structure (SMILES)	EC50 (SENP2 [1])	EC50 (USP7 [2])	EC50 (USP2 [3])	EC50 (USP7 [4])	EC50 (SENP2 [5])	EC50 (USP2 [6])
Cc1ccc(/C=C2\CNC/C(=C\c3ccc(C)cc3)C2=O)cc1 [NSC 632839]	9.8 ± 1.8 µM	37 ± 1 µM	45 ± 4 µM			
CCN1C(=O)C=CC1=O [N‐Ethylmaleimide]				1400 ± 70 µM	1300 ± 200 µM	1900 ± 200 µM

Reference: PMC2386736 (Protein Science : A Publication of the Protein Society, 2009)
